Measurements from the supplement of paper PMC13207355.
Counter-ions that a name gives are not always drawn.

What was measured:
Conditions in all cases: exposure time: 72 h
E28 [1] = patient-derived glioblastoma stem cells of classical subtype; experiment: surviving fraction (nuclei count normalised to DMSO); higher = more cells surviving (less toxic)
FT3469 [2] = normal neural stem cell line; experiment: as above
E34 [3] = patient-derived glioblastoma stem cells of proneural subtype; experiment: as above
E13 [4] = patient-derived glioblastoma stem cells of classical subtype; experiment: as above
E21 [5] = patient-derived glioblastoma stem cells of mesenchymal subtype; experiment: as above
E57 [6] = patient-derived glioblastoma stem cells of mesenchymal subtype; experiment: as above
E31 [7] = patient-derived glioblastoma stem cells of proneural subtype; experiment: as above
E28 [8] = experiment: phenotypic distance (Euclidean, principal components) from DMSO controls (arbitrary units); higher = stronger morphological change
FT3469 [9] = experiment: as above
E34 [10] = experiment: as above
E13 [11] = experiment: as above
E21 [12] = experiment: as above
E57 [13] = experiment: as above
E31 [14] = experiment: as above
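Throughout, for phenotypic distance (Euclidean, principal components) from DMSO controls: cell Painting imaging in 384-well plates, CellProfiler features reduced to at least 20 principal components, Euclidean distance versus same-plate DMSO vehicle wells (0.1% v/v), median over six images per well.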
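Throughout, for surviving fraction (nuclei count normalised to DMSO): nuclei counted by high-content imaging of Hoechst-stained cells in laminin-coated 384-well plates, relative to 0.1% DMSO vehicle wells, with staurosporine as cell-death control.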

CCN(CC)CCCC(C)Nc1c2ccc(Cl)cc2nc2ccc(OC)cc12 (stereo not drawn) [Quinacrine dihydrochloride hydrate]
Conditions	phenotypic distance	surviving fraction
E13 [4], 4.11523 nM	–	0.934
E13 [4], 12.34567901 nM	–	0.901
E13 [4], 37.037 nM	–	0.789
E13 [4], 111.1111111 nM	–	0.985
E13 [4], 333.333 nM	–	0.993
E13 [4], 1000 nM	–	0.911
E13 [4], 3000 nM	–	0.709
E13 [11], 4.11523 nM	0.636	–
E13 [11], 12.34567901 nM	0.492	–
E13 [11], 37.037 nM	0.777	–
E13 [11], 111.1111111 nM	0.595	–
E13 [11], 333.333 nM	2.11	–
E13 [11], 1000 nM	3.45	–
E13 [11], 3000 nM	1.42	–
E21 [5], 4.11523 nM	–	0.908
E21 [5], 12.34567901 nM	–	0.974
E21 [5], 37.037 nM	–	1
E21 [5], 111.1111111 nM	–	0.955
E21 [5], 333.333 nM	–	1.05
E21 [5], 1000 nM	–	1.09
E21 [5], 3000 nM	–	0.71
E21 [12], 4.11523 nM	0.539	–
E21 [12], 12.34567901 nM	0.4	–
E21 [12], 37.037 nM	0.451	–
E21 [12], 111.1111111 nM	0.853	–
E21 [12], 333.333 nM	0.649	–
E21 [12], 1000 nM	1.12	–
E21 [12], 3000 nM	1.66	–
E28 [1], 4.11523 nM	–	1.09
E28 [1], 12.34567901 nM	–	1.03
E28 [1], 37.037 nM	–	0.987
E28 [1], 111.1111111 nM	–	1.11
E28 [1], 333.333 nM	–	1.05
E28 [1], 1000 nM	–	1.13
E28 [1], 3000 nM	–	0.69
E28 [8], 4.11523 nM	0.665	–
E28 [8], 12.34567901 nM	0.451	–
E28 [8], 37.037 nM	0.457	–
E28 [8], 111.1111111 nM	0.704	–
E28 [8], 333.333 nM	0.722	–
E28 [8], 1000 nM	0.455	–
E28 [8], 3000 nM	1.98	–
E31 [7], 4.11523 nM	–	0.883
E31 [7], 12.34567901 nM	–	1.02
E31 [7], 37.037 nM	–	1.06
E31 [7], 111.1111111 nM	–	1.14
E31 [7], 333.333 nM	–	0.914
E31 [7], 1000 nM	–	1.16
E31 [7], 3000 nM	–	0.516
E31 [14], 4.11523 nM	1.19	–
E31 [14], 12.34567901 nM	0.694	–
E31 [14], 37.037 nM	0.513	–
E31 [14], 111.1111111 nM	0.784	–
E31 [14], 333.333 nM	0.524	–
E31 [14], 1000 nM	0.913	–
E31 [14], 3000 nM	2.12	–
E34 [3], 4.11523 nM	–	0.882
E34 [3], 12.34567901 nM	–	0.943
E34 [3], 37.037 nM	–	0.902
E34 [3], 111.1111111 nM	–	0.99
E34 [3], 333.333 nM	–	1.21
E34 [3], 1000 nM	–	0.998
E34 [3], 3000 nM	–	0.806
E34 [10], 4.11523 nM	0.829	–
E34 [10], 12.34567901 nM	1.53	–
E34 [10], 37.037 nM	0.456	–
E34 [10], 111.1111111 nM	0.849	–
E34 [10], 333.333 nM	1.06	–
E34 [10], 1000 nM	1.21	–
E34 [10], 3000 nM	0.812	–
E57 [6], 4.11523 nM	–	0.945
E57 [6], 12.34567901 nM	–	1.05
E57 [6], 37.037 nM	–	0.97
E57 [6], 111.1111111 nM	–	1.13
E57 [6], 333.333 nM	–	1.04
E57 [6], 1000 nM	–	1.1
E57 [6], 3000 nM	–	1.04
E57 [13], 4.11523 nM	1.09	–
E57 [13], 12.34567901 nM	1.14	–
E57 [13], 37.037 nM	0.424	–
E57 [13], 111.1111111 nM	0.923	–
E57 [13], 333.333 nM	0.838	–
E57 [13], 1000 nM	1.18	–
E57 [13], 3000 nM	2.11	–
FT3469 [2], 4.11523 nM	–	1.04
FT3469 [2], 12.34567901 nM	–	1.01
FT3469 [2], 37.037 nM	–	0.948
FT3469 [2], 111.1111111 nM	–	1.1
FT3469 [2], 333.333 nM	–	1.02
FT3469 [2], 1000 nM	–	1.1
FT3469 [2], 3000 nM	–	0.826
FT3469 [9], 4.11523 nM	0.574	–
FT3469 [9], 12.34567901 nM	0.546	–
FT3469 [9], 37.037 nM	0.759	–
FT3469 [9], 111.1111111 nM	0.562	–
FT3469 [9], 333.333 nM	0.547	–
FT3469 [9], 1000 nM	0.651	–
FT3469 [9], 3000 nM	2.59	–
